# Data published in patent US11725199B2, “Lactic acid bacteria with sweetening properties and uses thereof” (DUPONT NUTRITION BIOSCIENCES APS, priority 2017, dated 2023).
# Residue numbers refer to the chain shown, from its start.
# Experiments:
# Assay in all cases: Maximal forward velocity and Km of GlcK, glucose varied (test C)
# Type in all cases: biochemical
# [1] = molecular target: T1, Streptococcus thermophilus glucokinase (GlcK) variant E275K of DGCC7710, strain DSM32587 (DGCC12534), SEQ ID NO: 22 (Streptococcus thermophilus, UniProt Q5M4Y5, E275K); details: DSM32587 crude extract, glucose 0, 5, 10, 15, 20 mM, 1 mM ATP, pH 7.2, 30° C
# T1 construct: G-6PDH/NADP coupled assay
# T1 sequence (Q5M4Y5 1-322 E275K): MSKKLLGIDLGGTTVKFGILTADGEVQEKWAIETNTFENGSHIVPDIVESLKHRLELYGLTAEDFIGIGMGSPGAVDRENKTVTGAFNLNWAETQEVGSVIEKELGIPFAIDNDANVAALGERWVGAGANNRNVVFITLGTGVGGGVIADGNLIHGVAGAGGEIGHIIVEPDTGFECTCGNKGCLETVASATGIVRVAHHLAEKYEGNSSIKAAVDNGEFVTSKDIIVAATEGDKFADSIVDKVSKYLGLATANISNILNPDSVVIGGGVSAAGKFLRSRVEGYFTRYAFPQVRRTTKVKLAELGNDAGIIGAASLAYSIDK
# Experimental: A fresh overnight culture of a Streptococcus thermophilus strain in M17 containing 30 g/L lactose was obtained and used to inoculate at 1% (vol/vol) 10 ml of fresh M17 30 g/L lactose. Cells were harvested by centrifugation (6000 g, 10 min, 4° C.) at a 600 nm optical density (OD600) of 0.8+/−0.2, washed in 5 ml cold GLCK buffer (5 mM MgCl2, 10 mM K2HPO4/KH2PO4 [pH 7.2]), and resuspended in 500 μl cold GLCK buffer. EDTA-free protease inhibitors “cOmplete™” (Roche, supplier reference 04693132001) was added in GLCK buffer as described by the provider. Cells were disrupted by the addition of 100 mg glass beads (150-212 μm, Sigma G1145) to 200 μl resuspended cells and oscillation at a frequency of 30 cycles/s for 6 min in a MM200 oscillating mill (Retsch, Haan, Germany). […] Total protein content was determined by using the FLUKA Protein Quantification Kit-Rapid (ref 51254). The glucokinase activity in the cell extracts was determined spectrophotometrically by a glucose-6-phosphate dehydrogenase (G-6PDH, EC1.1.1.49):[…] assay (Porter et al., 1982), essentially as described by Pool et al. (2006). […] The optical density at 340 nm was measured for 5 minutes by using a Synergy HT multi-detection microplate reader (BIO-TEK). […] Glucokinase activity was calculated as follows: […]
# [2] = molecular target: T2, Streptococcus thermophilus glucokinase (GlcK) variant E275K of ST1.1, strain ST1.1m-glcK, SEQ ID NO: 22 (Streptococcus thermophilus, UniProt Q5M4Y5, E275K)
# T2 construct: G-6PDH/NADP coupled assay
# T2 sequence (Q5M4Y5 1-322 E275K): T1 sequence (Q5M4Y5 1-322 E275K)
# Experimental: (§1) A fresh overnight culture of a Streptococcus thermophilus strain in M17 containing 30 g/L lactose was obtained and used to inoculate at 1% (vol/vol) 10 ml of fresh M17 30 g/L lactose. Cells were harvested by centrifugation (6000 g, 10 min, 4° C.) at a 600 nm optical density (OD600) of 0.8+/−0.2, washed in 5 ml cold GLCK buffer (5 mM MgCl2, 10 mM K2HPO4/KH2PO4 [pH 7.2]), and resuspended in 500 μl cold GLCK buffer. EDTA-free protease inhibitors “cOmplete™” (Roche, supplier reference 04693132001) was added in GLCK buffer as described by the provider. Cells were disrupted by the addition of 100 mg glass beads (150-212 μm, Sigma G1145) to 200 μl resuspended cells and oscillation at a frequency of 30 cycles/s for 6 min in a MM200 oscillating mill (Retsch, Haan, Germany). Cell debris and glass beads were removed by centrifugation (14000 g, 15 min, 4° C.), and supernatant transferred into a clean 1.5 mL centrifuge tube kept on ice. Total protein content was determined by using the FLUKA Protein Quantification Kit-Rapid (ref 51254). The glucokinase activity in the cell extracts was determined spectrophotometrically by a glucose-6-phosphate dehydrogenase (G-6PDH, EC1.1.1.49):[…] assay (Porter et al., 1982), essentially as described by Pool et al. (2006). […] The optical density at 340 nm was measured for 5 minutes by using a Synergy HT multi-detection microplate reader (BIO-TEK). […] Glucokinase activity was calculated as follows:
# (§2) Glucokinase activity (U/g of total protein extract)=dOD×V/[dt×l×ε×Qprot], wherein: • dOD is the variation of optical density (OD) at 340 nm • V is the volume of the reaction (herein 250 μL)
# (§3) Measurements were triplicated for each sample, and the glucokinase specific activity values given herein under test A are the mean of three independent experiments.
# (§4) Measurements were triplicated for each sample, and the Vmax values given herein under test C are the mean of three independent experiments.
# (§5) The respective mutants were called ST1.1m-glcK and ST1.2m-glcK. The GlcK sequence of these 2 mutants is as defined in SEQ ID NO:22.
# [3] = molecular target: T3, Streptococcus thermophilus glucokinase (GlcK) of strain ST1.2 (parent) (Streptococcus thermophilus, UniProt Q5M4Y5)
# T3 construct: G-6PDH/NADP coupled assay
# T3 sequence (Q5M4Y5 1-322): T1 sequence (Q5M4Y5 1-322 E275K) with K275E
# Experimental: as §1, §2, §3, §4, §5
# [4] = molecular target: T4, Streptococcus thermophilus glucokinase (GlcK) of strain ST1.1 (parent) (Streptococcus thermophilus, UniProt Q5M4Y5)
# T4 construct: G-6PDH/NADP coupled assay
# T4 sequence (Q5M4Y5 1-322): T1 sequence (Q5M4Y5 1-322 E275K) with K275E
# Experimental: as §1, §2, §3, §4, §5
# [5] = molecular target: T5, Streptococcus thermophilus glucokinase (GlcK) variant E275K of ST1.2, strain ST1.2m-glcK, SEQ ID NO: 22 (Streptococcus thermophilus, UniProt Q5M4Y5, E275K)
# T5 construct: G-6PDH/NADP coupled assay
# T5 sequence (Q5M4Y5 1-322 E275K): T1 sequence (Q5M4Y5 1-322 E275K)
# Experimental: as §1, §2, §3, §4, §5
# [6] = molecular target: T6, Streptococcus thermophilus glucokinase (GlcK) of strain DGCC7710 (DSM28255, GlcK type ST1), non-mutated, SEQ ID NO: 2 (Streptococcus thermophilus, UniProt Q5M4Y5); details: DGCC7710 crude extract; glucose 0, 5, 10, 15, 20 mM; 1 mM ATP; pH 7.2; 30° C; average of three experiments
# T6 construct: G-6PDH/NADP coupled assay
# T6 sequence (Q5M4Y5 1-322): T1 sequence (Q5M4Y5 1-322 E275K) with K275E
# Experimental: The linear regression representing the inverse of the specific velocity in function of the inverse of the glucose concentration gives the inverse of the maximal forward velocity at the intersection with the Y-axis of the graphic.
# A fresh overnight culture of a Streptococcus thermophilus strain in M17 containing 30 g/L lactose was obtained and used to inoculate at 1% (vol/vol) 10 ml of fresh M17 30 g/L lactose. Cells were harvested by centrifugation (6000 g, 10 min, 4° C.) at a 600 nm optical density (OD600) of 0.8+/−0.2, washed in 5 ml cold GLCK buffer (5 mM MgCl2, 10 mM K2HPO4/KH2PO4 [pH 7.2]), and resuspended in 500 μl cold GLCK buffer. EDTA-free protease inhibitors “cOmplete™” (Roche, supplier reference 04693132001) was added in GLCK buffer as described by the provider. Cells were disrupted by the addition of 100 mg glass beads (150-212 μm, Sigma G1145) to 200 μl resuspended cells and oscillation at a frequency of 30 cycles/s for 6 min in a MM200 oscillating mill (Retsch, Haan, Germany). […] Total protein content was determined by using the FLUKA Protein Quantification Kit-Rapid (ref 51254). […] The optical density at 340 nm was measured for 5 minutes by using a Synergy HT multi-detection microplate reader (BIO-TEK). […] Glucokinase activity was calculated as follows: […]
smiles,measurement,setting,value
OC[C@H]1OC(O)[C@H](O)[C@@H](O)[C@@H]1O (some centres unmarked) [glucose],Vmax Glucokinase (glucose),[1]; average of three experiments,914 U/g total protein extract
same,Km,"[1]; read-out: Km Glucokinase (glucose), average",1330 µM
same,Vmax Glucokinase (glucose),"[2]; ST1.1m-glcK crude extract, glucose 0, 5, 10, 15, 20 mM, 1 mM ATP, pH 7.2, 30° C, average of three experiments",795 U/g total protein extract
same,Vm Glucokinase (glucose),"[2]; ST1.1m-glcK, summary table",795
same,Vm Glucokinase (glucose),"[3]; ST1.2, summary table",2431
same,Vmax Glucokinase (glucose),"[3]; ST1.2 crude extract, glucose 0, 5, 10, 15, 20 mM, 1 mM ATP, pH 7.2, 30° C, average of three experiments",2431 U/g total protein extract
same,Vm Glucokinase (glucose),"[4]; ST1.1, summary table",2687
same,Vmax Glucokinase (glucose),"[4]; ST1.1 crude extract, glucose 0, 5, 10, 15, 20 mM, 1 mM ATP, pH 7.2, 30° C, average of three experiments",2687 U/g total protein extract
same,Vmax Glucokinase (glucose),"[5]; ST1.2m-glcK crude extract, glucose 0, 5, 10, 15, 20 mM, 1 mM ATP, pH 7.2, 30° C, average of three experiments",501 U/g total protein extract
same,Vm Glucokinase (glucose),"[5]; ST1.2m-glcK, summary table",501
same,Vmax Glucokinase (glucose),[6],2855 U/g total protein extract
